Results reported in patent US20220204654A1, “CYCLODEXTRIN SUPRAMOLECULAR SCAFFOLDS AND USES THEREOF” (Massachusetts Institute of Technology, priority 2019, published 2022).

How the values were obtained:
[1] = unmodified cyclodextrin with adamantine (AD), comparison statement; cited from earlier work
[2] = Isothermal titration calorimetry (ITC) glucose binding assay; details: ITC binding isotherm, read-out: binding affinity (Kd)
Method: Binding studies were then carried out using isothermal titration calorimetry (ITC) to measure thermodynamic properties during binding. ITC was chosen as the preferred method to confirm binding of glucose as this assay excludes the possibilities of any false positive data. The ITC based binding assay needed significant optimization with respect to macromolecule concentration, choice of buffer, ways of desalting, concentration of the glucose solution, etc.

Kd [2] [mM] | Molecule | dissociation constant [1]
– | cyclodextrin | micromolar range
~5 | OCC1O[C@@H]2O[C@@H]3C(CO)O[C@H](O[C@@H]4C5CSCc6ccc(cc6)-c6ccc(cc6)CSCC6O[C@H](O[C@@H]7C(CO)O[C@H](O[C@H]1C(O)C2O)C(O)C7O)C(O)C(O)[C@@H]6O[C@H]1OC(CO)[C@@H](O[C@H]2OC(CO)[C@@H](O[C@@H](O5)C(O)C4O)C(O)C2O)C(O)C1O)C(O)C3O (some centres unmarked) [CDC1] | –
